Data published in article PMC5947539, “Cyclometalated iridium(III) complexes as lysosome-targeted photodynamic anticancer and real-time tracking agents” (Chemical Science, 2015).
Where two headings read alike, the source gives them in different places.

How the values were obtained:
[1] = test system: A549 cells; assay: (Photo)cytotoxicity, MTT assay, A549; type: cell-based, human; settings: for PI (phototoxicity index) / IC50: A549; for PI (phototoxicity index): IC50 dark / IC50 light
Description: (§1) Cell lines and culture conditions
(§2) A549, A549cisR, MCF-7 and LO2 cells were obtained from Experimental Animal Center of Sun Yat-sen University (Guangzhou, China). Cells were maintained in DMEM (Dulbecco’s modified […]
(§3) medium, which contained 10% FBS (fetal bovine serum, Gibco BRL), 100 ȝg/mL streptomycin (Gibco BRL), and 100 U/mL penicillin (Gibco BRL). The cells were cultured in a humidified […]
(§4) In each experiment, cells treated with vehicle control (1% DMSO) were kept as the reference group.
(§5) The cytotoxicity in the dark and phototoxicity of the tested compounds toward A549, A549cisR, MCF-7 and LO2 cell lines was determined by MTT assay.
(§6) For cytotoxicity in the dark, cells cultured in 96-well plates were grown to confluence. The compounds were dissolved in DMSO (1%, v/v), and diluted with fresh media immediately. the cells were incubated with a series of concentrations of the tested compounds for 44 h at 37 °C. 20 ȝL of MTT solution was then added to each well, and the plates were incubated for an additional 4 h. The media was carefully removed, and DMSO was added (150 µL per well) and incubated for 10 min with shaking. The absorbance at 595 nm was measured using a microplate reader (Infinite M200 Pro, Tecan, Männedorf, Switzerland).
(§7) For phototoxicity, the cells were incubated with the tested compounds for 12 h. The media containing the iridium complexes was removed and fresh media without the complexes was added.
(§8) After another 32 h of incubation, MTT was added. The cytotoxicity was determined as described

[2] = test system: A549cisR cells; assay: (Photo)cytotoxicity, MTT assay, A549cisR; type: cell-based, human; settings: for PI (phototoxicity index): IC50 dark / IC50 light
Description: as §1, §2, §3, §4, §5, §6, §7, §8

[3] = test system: LO2 cells; assay: (Photo)cytotoxicity, MTT assay, LO2; type: cell-based, human; settings: for PI (phototoxicity index): IC50 dark / IC50 light
Description: as §1, §2, §3, §4, §5, §6, §7, §8

[4] = test system: MCF-7 cells; assay: (Photo)cytotoxicity, MTT assay, MCF-7; type: cell-based, human; settings: for PI (phototoxicity index): IC50 dark / IC50 light
Description: as §1, §2, §3, §4, §5, §6, §7, §8

[5] = test system: caspase-3/7 activity in A549 cells; assay: Caspase-3/7 activity assay (Caspase-Glo); type: cell-based, human; settings: for increase in caspase-3/7 activity: vs control cells in the dark
Description: (§9) concentrations for 24 h with or without light irradiation. After A549 cells were incubated with 2 for 12 h, the cells were irradiated with a 425 nm LED light array (40 mW cmí2) for 15 min (36 J cmí2).
(§10) When necessary, the cells were incubated with NaN3 (10 mM) for 1 h before PDT treatment. The cells were washed twice with PBS gently and fixed with 4% paraformalclehyde for 30 min at room temprature. The cells were washed with PBS twice, and then Hoechst 33342 (5 µg/mL) in PBS was added to the media by gently shaking in the dark for 10 min. The cells were washed with PBS twice and visualized by confocal microscopy (LSM 710, Carl Zeiss, Göttingen, Germany). Emission was collected at 460 ± 20 nm upon excitation at 405 nm.
Caspase-3/7 activity assay
Caspase-3/7 activity was measured using Caspase-Glo® Assay kit (Promega, Madison, WI, USA) according to the manufacturer's instructions. Briefly, cells were cultured in 96-well plates and treated […]
incubated with 2 or cisplatin for 12 h, the cells were irradiated with a 425 nm LED light array (40 mW cmí2) for 15 min (36 J cmí2). 100 µL of Caspase-Glo® 3/7 reagent was added to each well containing 100 µL culture media. The mixture was incubated at room temperature for 1 h and then the luminescence was measured using a microplate reader (Infinite M200 Pro, Tecan, Männedorf, […]
The cells were further treated with 10 ȝM DCF-DA for 20 min at 37 °C in the dark and then then irradiated with a 425 nm LED light array (40 mW cmí2) for 15 min (36 J cmí2). After the treatment, the cells were harvested and washed twice with serum-free RPMI 1640, the fluorescence intensity of DCF in A549 cells was measured by flow cytometry (FACSCaliburTM, Becton Dickinson, Franklin Lakes, NJ, USA). The results were analyzed by FlowJo Software (Tree Star, OR, USA). […]
(§11) concentrations for 12 h and then irradiated with a 425 nm LED light array (40 mW cmí2) for 15 min

[6] = test system: A549 cells; settings: A549, 0.5 μM with light (36 J cm–2), vs control cells treated with light alone
Description: as §9
as §10, with “nm. […]” for “nm.”
Caspase-3/7 activity was measured using Caspase-Glo® Assay kit (Promega, Madison, WI, USA) according to the manufacturer's instructions. […]
incubated with 2 or cisplatin for 12 h, the cells were irradiated with a 425 nm LED light array (40 mW cmí2) for 15 min (36 J cmí2). […] The mixture was incubated at room temperature for 1 h and then the luminescence was measured using a microplate reader (Infinite M200 Pro, Tecan, Männedorf, […]
The cells were further treated with 10 ȝM DCF-DA for 20 min at 37 °C in the dark and then then irradiated with a 425 nm LED light array (40 mW cmí2) for 15 min (36 J cmí2). […] The results were analyzed by FlowJo Software (Tree Star, OR, USA). […]

[7] = test system: A549 and LO2 cells; settings: 0.5 μM, light 36 J cm–2, annexin V/propidium iodide staining
Description: as §11

[8] = test system: A549 cells; settings: A549, 0.5 μM with light (36 J cm–2)
Description: Annexin V/propidium iodide double staining assay
The assay was performed according to the manufacturer's (Sigma Aldrich, USA) protocol. A549 cells
a 425 nm LED light array (40 mW cmí2) at different light doses (12, 24 or 36 J cmí2).
necessary, the cells were incubated with NaN3 (10 mM) for 1 h before PDT treatment. For flow
cytometry analysis, the cells were harvested and re-suspended in 500 ȝL annexin-binding buffer (10
mM HEPES, 140 mM NaCl, 2.5 mM CaCl2, pH 7.4). The cell suspension was stained with 5 ȝL
annexin V and 10 ȝL propidium iodide at room temperature for 15 min in the dark, and then
analyzed immediately by flow cytometry (FACSCaliburTM, Becton Dickinson, NJ, USA). The
resulting dot blots were analyzed by FlowJo Software (Tree Star, OR, USA). For confocal
microscopy analysis, the cells were washed twice with PBS, and then incubated with 500 ȝL annexin-binding buffer supplemented with 5 ȝL annexin V and 10 ȝL propidium iodide at room
temperature for 15 min in the dark. The samples were visualized immediately by confocal
microscopy (LSM 710, Carl Zeiss, Göttingen, Germany). Emission was collected at 530 ± 20 nm
(annexin V) and 620 ± 20 nm (propidium iodide) upon excitation at 488 nm.

[9] = dark, incubated 48 h, read-out: IC50 Dark
[10] = incubated 12 h then 425 nm LED 15 min (36 J cm–2), read-out: IC50 (light) (converted)
[11] = Homo sapiens, dark, incubated 48 h, read-out: IC50 Dark
[12] = Homo sapiens, incubated 12 h then 425 nm LED 15 min (36 J cm–2), read-out: IC50 (light) (converted)
[13] = Homo sapiens, L02, dark, incubated 48 h, read-out: IC50 Dark
[14] = Homo sapiens, L02, incubated 12 h then 425 nm LED 15 min (36 J cm–2), read-out: IC50 (light) (converted)

## Ir2(dfppy)4Cl2 [reference compound]
[1]
  PI (phototoxicity index): 1.2
[1]; [9]
  IC50: 11.5 ± 1.5 µM
[1]; [10]
  IC50: 9.3 µM
[2]
  PI (phototoxicity index): 1.0
[2]; [9]
  IC50: 4.3 ± 0.5 µM
[2]; [10]
  IC50: 4.2 µM
[3]
  PI (phototoxicity index): 1.4
[3]; [9]
  IC50: 29.6 ± 3.1 µM
[3]; [10]
  IC50: 21.5 µM
[4]
  PI (phototoxicity index): 5.2

## N.N.[Cl][Pt][Cl] [Cisplatin, reference compound]
[1]
  PI (phototoxicity index): 1.0
[1]; [9]
  IC50: 23.3 ± 2.6 µM
[1]; [10]
  IC50: 22.6 µM
[2]
  PI (phototoxicity index): 1.0
[2]; [9]
  IC50: 85.5 ± 5.3 µM
[2]; [10]
  IC50: 86.1 µM
[3]
  PI (phototoxicity index): 1.0
[3]; [9]
  IC50: 31.2 ± 2.7 µM
[3]; [10]
  IC50: 30.5 µM
[4]
  PI (phototoxicity index): 1.1
[5]; A549, 425 nm light (36 J cm–2)
  effect of light irradiation on caspase-3/7 activation: no effect

## Ir2(ppy)4Cl2 [reference compound]
[1]
  PI (phototoxicity index): 1.7
[1]; [9]
  IC50: 19.6 ± 2.6 µM
[1]; [10]
  IC50: 11.4 µM
[2]
  PI (phototoxicity index): 2.9
[2]; [9]
  IC50: 20.2 ± 2.3 µM
[2]; [10]
  IC50: 7 µM
[3]
  PI (phototoxicity index): 1.3
[3]; [9]
  IC50: 28.5 ± 2.4 µM
[3]; [10]
  IC50: 21.3 µM
[4]
  PI (phototoxicity index): 4.3

## [Ir(N^C)2(N^N)](PF6) in which N^C = 2-phenylpyridine and N^N = 1-(2-benzimidazolyl)-β-carboline [Complex 2]
[1]
  PI (phototoxicity index): >833
[1]; [9]
  IC50: ≥ 100 µM
[1]; [10]
  IC50: 0.12 µM
[1]; light IC50 A549 vs LO2
  fold higher phototoxicity against A549 cells than against LO2 cells: over 36 fold
[2]
  PI (phototoxicity index): >625
[2]; [9]
  IC50: > 100 µM
[2]; [10]
  IC50: 0.16 µM
[3]; [9]
  IC50: > 100 µM
[3]; [10]
  IC50: 4.4 µM
[4]
  PI (phototoxicity index): > 769
[4]; incubated 12 h then 425 nm LED 15 min (36 J cm-2), read-out: IC50 Light
  IC50: 0.13 ± 0.02 µM
[5]; A549, 0.5 μM and light (36 J cm–2)
  increase in caspase-3/7 activity: approximately 5.7 fold
[5]; A549, compound alone (dark)
  increase in caspase-3/7 activity: negligible increase
[6]
  increase in the mean fluorescence intensity of DCF: ca. 17 fold
[7]
  selectivity of PDT in A549/LO2 co-culture: high selectivity towards cancer over normal cells
[8]
  percentage of apoptotic cells: 69.7%

## c1ccc2[nH]c(-c3nccc4c3[nH]c3ccccc34)nc2c1 [Complex L2, 1-(2-benzimidazolyl)-β-carboline]
[1]; [11]
  IC50: > 100 µM
[1]; [12]
  IC50: > 100 µM
[2]; [11]
  IC50: > 100 µM
[2]; [12]
  IC50: > 100 µM
[3]; [13]
  IC50: > 100 µM
[3]; [14]
  IC50: > 100 µM

## c1ccc2c(c1)[nH]c1c(-c3ncc[nH]3)nccc12 [Complex L1, 1-(2-imidazolyl)-β-carboline, reference compound]
[1]
  PI (phototoxicity index): >5.7
[1]; [11]
  IC50: > 100 µM
[1]; [12]
  IC50: 17.6 µM
[2]; [11]
  IC50: 42.6 ± 3.8 µM
[2]; [12]
  IC50: 19.7 µM
[2]
  PI (phototoxicity index): 2.2
[3]; [13]
  IC50: > 100 µM
[3]; [14]
  IC50: 47.4 µM
[3]
  PI (phototoxicity index): >2.1
[4]
  PI (phototoxicity index): 16.3
